The values that follow come from US20240368115A1, “REGULATOR CONTAINING TRICYCLIC DERIVATIVE, PREPARATION METHOD THEREFOR AND APPLICATION THEREOF” (SHUJING BIOPHARMA CO., LTD, priority 2021, published 2024).

For orientation: AUC(0-inf) means the area under the concentration-time curve extrapolated to infinity. A word on the Cmax: it is the peak of the concentration-time curve. The term EC50 denotes the concentration giving half of the maximal effect. What is called IC50 is the concentration that inhibits the measured activity by half. As usually defined, the half-life is how long it takes for the measured level to halve.

Read-outs that look alike come from different tables or passages of the source.

A short description of data set [1]: Pharmacokinetic test in mice. It counts as in vivo. Particulars: oral intragastric, single dose 5 mg/kg, plasma, 5 mg/kg. The method, then: Male ICR mice were administered orally intragastrically, the plasma concentrations of the compounds of the present invention were measured in the mice, the PK parameters were calculated, and the pharmacokinetic evaluation was performed on the compounds of the present invention.
• (1) Test samples: the compounds of the examples of the present invention, self-made. • (2) Test animals: ICR mice, SPF grade, male, Xuzhou Medical University. • (3) Main test instruments:
Drug preparation: according to the weight of the weighed drug, the preparation volume was calculated. 5% of DMSO was added firstly. After the drug was fully dissolved, 95% of 20% aqueous PB-cyclodextrin solution was then added, and the mixture was mixed well for later use.
Administration route: oral intragastric administration. Frequency and duration of administration: single administration.
ICR mice were stratified according to body weight and then randomly divided into groups of 9 mice each, and the mice were fasted overnight prior to the test. The mice were separately administered orally intragastrically. 50 μL of blood was collected from the fundus vein of the mouse at 0 h, 0.083 h, 0.25 h, 0.5 h, 1 h, 2 h, 4 h, 8 h, 12 h, and 24 h (3 time points for each mouse) to a sample tube containing heparin sodium as an anticoagulant, and the tube was placed in wet ice and centrifuged at 4000 r·min^−1 for 10 min. The plasma was separated, and cryopreserved in a refrigerator at −80° C. for testing.
The concentrations of plasma samples were measured by high performance liquid chromatography-tandem mass spectrometry (LC-MS/MS). The retention times of the compounds and internal standard, chromatogram acquisitions, and integrals of chromatograms were processed using the software Analyst (AB SCIEX), and the data statistics were processed using the software Watson LIMS (Thermo Fisher Scientific) or Analyst (AB SCIEX). The concentration of plasma was processed using a non-compartmental model of the pharmacokinetic software WinNonlin™ Version 6.3 (Pharsight, Mountain View, CA), and pharmacokinetic parameters were calculated by a linear log-trapezoidal method.

In data set [2] the target is T1, 5-HT1A receptor (Homo sapiens, UniProt P08908).
T1 construct: expressed in transfected cells
T1 sequence (P08908 1-422): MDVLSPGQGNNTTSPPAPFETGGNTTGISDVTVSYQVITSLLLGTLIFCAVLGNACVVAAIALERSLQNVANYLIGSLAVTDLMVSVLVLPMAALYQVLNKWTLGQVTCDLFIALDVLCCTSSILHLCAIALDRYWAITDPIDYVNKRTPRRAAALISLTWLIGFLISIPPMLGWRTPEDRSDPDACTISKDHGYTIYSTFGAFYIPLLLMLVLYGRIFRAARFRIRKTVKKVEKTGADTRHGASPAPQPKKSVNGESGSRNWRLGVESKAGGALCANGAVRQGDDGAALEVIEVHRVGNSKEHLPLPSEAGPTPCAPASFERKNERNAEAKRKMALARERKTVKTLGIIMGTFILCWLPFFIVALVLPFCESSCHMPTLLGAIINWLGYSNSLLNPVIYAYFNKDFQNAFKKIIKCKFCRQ
The data set can be described thus: 5-HT1A receptor cAMP agonist test. Format: cell-based. As to conditions: HEK293 cell strain stably expressing 5-HT1A receptor; for EC50: cAMP, forskolin 2.5×10^−7 M; for 5-HT1A Max Act %: positive control serotonin 10^−6 M. From the text: • cAMP detection kit was purchased from Cisbio; an HEK293 cell strain stably expressing 5-HT1A receptor was constructed by Shanghai Shujing Biopharma Co., Ltd.; serotonin, forskolin, and IBMX were purchased from Sigma; ProxiPlate-384 well plates were purchased from PerkinElmer; HBSS was purchased from Thermo Fisher Scientific.
(§1) • (1) The cultured cells were digested with trypsin, and the cell suspension was washed with HBSS buffer after the digestion was terminated. The medium was removed by centrifugation at 200×g. The pellet was resuspended in an appropriate amount of experimental buffer, and 20 μL of cell suspension was counted using a cell counter and diluted to 0.4×10^6 cells/mL. • (2) 5 μL of cell suspension was added to a ProxiPlate-384 well plate (2×10^3 cells/well). • (3) Test compounds were serially diluted in an experimental buffer, and 5 μL of the mixed solution was transferred to the reaction plate with Bravo.

The target of data set [3] is T2, D2S receptor (Homo sapiens, UniProt P14416).
T2 construct: expressed in transfected cells
T2 sequence (P14416 1-414 isoform P14416-2): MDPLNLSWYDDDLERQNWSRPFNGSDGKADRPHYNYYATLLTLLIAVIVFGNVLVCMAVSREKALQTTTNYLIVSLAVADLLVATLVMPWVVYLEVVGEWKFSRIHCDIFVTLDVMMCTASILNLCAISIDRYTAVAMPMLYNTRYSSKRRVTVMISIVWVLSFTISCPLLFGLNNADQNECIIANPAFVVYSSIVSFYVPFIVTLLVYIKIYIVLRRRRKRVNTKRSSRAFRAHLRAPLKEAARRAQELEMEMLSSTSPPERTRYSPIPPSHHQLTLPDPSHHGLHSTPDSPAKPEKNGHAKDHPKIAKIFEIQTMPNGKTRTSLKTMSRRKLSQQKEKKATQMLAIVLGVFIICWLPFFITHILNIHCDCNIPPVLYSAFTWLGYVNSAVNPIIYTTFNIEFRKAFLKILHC
The data set can be described thus: D2S receptor cAMP agonist test. Format: cell-based. As to conditions: HEK293 cell strain stably expressing D2S receptor; for EC50: cAMP, forskolin 5×10^−7 M; for D2S Max Act %: positive control dopamine 1×10^−7 M.
Excerpt: cAMP detection kit was purchased from Cisbio; an HEK293 cell strain stably expressing D2S receptor was constructed by Shanghai Shujing Biopharma Co., Ltd.; dopamine, forskolin, and IBMX were purchased from Sigma; ProxiPlate-384 well plates were purchased from PerkinElmer; HBSS was purchased from Thermo Fisher Scientific.
as §1, with “0.6×10^6” for “0.4×10^6”, “(3×10^3” for “(2×10^3”

The target in data set [4] is T3, D2L receptor (Homo sapiens, UniProt P14416).
T3 construct: expressed in transfected cells
T3 sequence (P14416 whole entry): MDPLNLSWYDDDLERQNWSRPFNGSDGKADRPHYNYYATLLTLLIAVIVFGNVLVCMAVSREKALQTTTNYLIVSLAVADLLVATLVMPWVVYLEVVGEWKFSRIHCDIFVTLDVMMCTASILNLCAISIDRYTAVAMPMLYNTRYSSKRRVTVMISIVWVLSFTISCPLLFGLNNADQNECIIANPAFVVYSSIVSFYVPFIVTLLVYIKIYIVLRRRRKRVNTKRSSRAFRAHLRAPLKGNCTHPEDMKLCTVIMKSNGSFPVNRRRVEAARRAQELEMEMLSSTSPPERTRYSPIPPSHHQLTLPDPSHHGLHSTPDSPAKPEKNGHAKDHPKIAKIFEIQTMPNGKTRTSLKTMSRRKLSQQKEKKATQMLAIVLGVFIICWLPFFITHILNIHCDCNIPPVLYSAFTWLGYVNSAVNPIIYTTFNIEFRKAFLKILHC
The data set can be described thus: D2L receptor cAMP agonist test. It counts as cell-based. As to conditions: HEK293 cell strain stably expressing D2L receptor; for EC50: cAMP, forskolin 0.5 μM; for D2L Max Act %: positive control dopamine 1 μM. The method, then: • cAMP detection kit was purchased from Cisbio; an HEK293 cell strain stably expressing D2L receptor was constructed by Shanghai Shujing Biopharma Co., Ltd.; dopamine, forskolin, and IBMX were purchased from Sigma; ProxiPlate-384 well plates were purchased from PerkinElmer; HBSS was purchased from Thermo Fisher Scientific.
• (1) The cryopreserved cells were thawed in a water bath at 37° C., the cell suspension was resuspended in HBSS buffer, and the mixed solution was centrifuged at 750 rpm for 5 min to remove the medium. The pellet was resuspended in an appropriate amount of experimental buffer, and an appropriate amount of cell suspension was diluted to 0.4×10^6 cells/mL. • (2) 5 μL of cell suspension was added to a ProxiPlate-384 well plate (2×10^3 cells/well), and the plate was centrifuged at 1000 rpm for 1 min. • (3) Test compounds were serially diluted in an experimental buffer, and 5 μL of the mixed solution was transferred to the reaction plate with Bravo.

Data set [5] addresses 5-HT2A receptor (Homo sapiens, UniProt P28223). The data set can be described thus: Calcium flux test for 5-HT2A receptor. Format: cell-based. As to conditions: CHO cell strain stably expressing 5-HT2A receptor; for IC50: calcium flux, antagonism of serotonin; for 5-HT2A Max Inh %: positive control ketanserin 10^−7 M. The method, then:
• Fluo-4 calcium flux detection kit was purchased from Invitrogen; a CHO cell strain stably expressing 5-HT2A receptor was purchased from PerkinElmer; serotonin was purchased from Sigma; ketanserin was purchased from Targetmol; polylysine-coated 384-well plates and 384-well compound plates were purchased from Greiner Bio-One. Molecular Device FLIPR, Agilent Bravo liquid workstation, and Countstar BioTech cell counter.
• (1) The cryopreserved cells were rapidly thawed in a water bath at 37° C., and the cells were resuspended in a plating medium. The cryopreservation solution was removed by centrifugation at 200×g. The pellet was resuspended in an appropriate amount of plating medium, 20 μL of cell suspension was counted using a cell counter, and the cell density was diluted to 1×10^6 cells/mL. • (2) 20 μL of cell suspension was added to a polylysine-coated 384-well plate (2×10^4 cells/well). • (3) The cell plate was incubated in a 37° C./5% CO2 incubator for 16-20 h.
• (1) The cell plate was taken out from the incubator and centrifuged at 100×g to remove the medium. 20 μL of experimental buffer was added, and then 20 μL of 2× fluorescent probe solution was added. […] The cell plate and agonist positive compound plate were placed into the FLIPR instrument, the detection program was run, 10 μL of the diluted compound was transferred from the agonist compound plate to the cell plate, and the fluorescence signal was read. […] The cell plate and test compound plate were placed in the FLIPR instrument, the detection program was run, and 10 μL of the diluted compound was transferred from the test compound plate to the cell plate. […] The test compound plate was then taken out, and the agonist positive compound plate with 6×EC50 concentration was placed.
Inhibition rate (Inhibition %)=(negative control reading value−compound reading value)/(negative control reading value−positive control reading value)×100%
Background: Calcium flux is commonly read through the fluorescence of an indicator in the cells.

The mark [6] stands for this setting: male, ICR, mouse, po, read-out: AUC(0-inf).
Setting [7] is: male, ICR, mouse, po, read-out: Cmax.

5-HT2A receptor, sequence (P28223 whole entry): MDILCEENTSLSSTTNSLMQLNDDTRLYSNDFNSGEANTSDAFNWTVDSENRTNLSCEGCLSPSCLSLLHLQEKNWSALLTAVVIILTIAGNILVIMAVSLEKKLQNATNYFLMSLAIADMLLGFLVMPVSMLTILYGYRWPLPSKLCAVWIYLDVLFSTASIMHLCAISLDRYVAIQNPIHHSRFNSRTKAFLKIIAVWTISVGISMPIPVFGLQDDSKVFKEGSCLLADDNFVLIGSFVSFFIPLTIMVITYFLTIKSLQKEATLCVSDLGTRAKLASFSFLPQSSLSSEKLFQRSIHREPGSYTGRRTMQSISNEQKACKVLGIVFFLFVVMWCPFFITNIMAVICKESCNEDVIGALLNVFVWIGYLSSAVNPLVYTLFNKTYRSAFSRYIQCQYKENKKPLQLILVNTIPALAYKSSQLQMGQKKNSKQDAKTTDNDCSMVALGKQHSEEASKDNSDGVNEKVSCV

Take `O=C1Nc2cc(OCCCCN3CCN(c4cccc5c4CCO5)CC3)ccc2C2CC12` (single isomer, unassigned) [Example 45-P2]: in data set [1] (male ICR mice), the area under the curve AUC(0-inf) was found to be 4083.7 ng·h/mL, the Cmax stood at 660.0 ng/mL and the t1/2 turned out to be 3.0 h. Besides, in data set [2], the EC50 came to 200 nM and the “5-HT1A Max Act %” value worked out at 52.8%. In addition, in data set [3], a half-maximal effect (EC50) was put at 0.89 nM and the “D2S Max Act %” value is 111.5%. Besides, in data set [4], the 50% effective concentration (EC50) stood at 0.62 nM and the “D2L Max Act %” value worked out at 41.5%. Moreover, in data set [5], the IC50 was found to be 411 nM and the “5-HT2A Max Inh %” value is given as 100.0%.

`O=C1Nc2cc(OCCCCN3CCN(c4cccc5c4OC(F)(F)O5)CC3)ccc2C2CC12` (stereo not shown) [Example 41, 5-(4-(4-(2,2-Difluorobenzo[d][1,3]dioxolan-4-yl)piperazin-1-yl)butoxy)-1,1a,3,7b-tetrahydro-2H-cyclopropa[c]quinolin-2-one] had a half-life in data set [1] (male, ICR, mouse, po) of 8.6 h. For the same molecule, in data set [1] (setting [6]), the AUC(0-inf) is 9970 ng·h/mL. For the same molecule, the Cmax in data set [1] (setting [7]) came out at 971 ng/mL. Further, in data set [2], the EC50 is 50.8 nM and the “5-HT1A Max Act %” value is on record as 92.7%. Besides, in data set [3], the EC50 came to 0.92 nM and the “D2S Max Act %” value is on record as 115.0%. Moreover, in data set [4], the midpoint of the response, the EC50, lay at 0.97 nM and the “D2L Max Act %” value is reported as 42.4%. For the same molecule, in data set [5], the IC50 was 3350 nM and the “5-HT2A Max Inh %” value is on record as 80.4%.

On to `O=C1Nc2cc(OCCCCN3CCN(c4cccc5sccc45)CC3)ccc2C2CC12` (stereo not shown) [Example 42, 5-(4-(4-(Benzo[b]thiophen-4-yl)piperazin-1-yl)butoxy)-1,1a,3,7b-tetrahydro-2H-cyclopropa[c]quinolin-2-one], for which the half-life in data set [1] (male, ICR, mouse, po) is 13 h. For the same molecule, in data set [1] (setting [6]), the AUC(0-inf) turned out to be 11300 ng·h/mL. For the same molecule, the Cmax in data set [1] (setting [7]) was determined as 687 ng/mL. In addition, in data set [2], the EC50 was 313 nM and the “5-HT1A Max Act %” value turned out to be 55.7%. In addition, in data set [3], the midpoint of the response, the EC50, lay at 0.95 nM and the “D2S Max Act %” value is 106.0%. In data set [4], the response was half-maximal at 0.47 nM (EC50) and the “D2L Max Act %” value was found to be 32.7%. Further, in data set [5], the IC50 stood at 1690 nM and the “5-HT2A Max Inh %” value is 100.6%.

`O=C1Nc2cc(OCCCCN3CCN(c4cccc5c4CCO5)CC3)ccc2C2CC12` (stereo not shown) [Example 45, 5-(4-(4-(2,3-Dihydrobenzofuran-4-yl)piperazin-1-yl)butoxy)-1,1a,3,7b-tetrahydro-2H-cyclopropa c quinolin-2-one] showed a half-life in data set [1] (male, ICR, mouse, po) of 6.1 h. Further, in data set [1] (setting [6]), the AUC(0-inf) came to 9650 ng·h/mL. Further, the Cmax in data set [1] (setting [7]) was 1160 ng/mL. Besides, in data set [2], the EC50 stood at 253 nM and the “5-HT1A Max Act %” value was 54.7%. Further, in data set [3], the EC50 is 0.93 nM and the “D2S Max Act %” value is recorded as 105.6%. Also, in data set [4], the EC50 is 0.44 nM and the “D2L Max Act %” value was determined as 41.3%. For the same molecule, in data set [5], the IC50 was 460 nM and the “5-HT2A Max Inh %” value is given as 100.1%.

`O=C1Nc2cc(OCCCCN3CCN(c4cccc5c4CC(F)(F)C5)CC3)ccc2C2CC12` (stereo not shown) [Example 46, 5-(4-(4-(2,2-Difluoro-2,3-dihydro-1H-inden-4-yl)piperazin-1-yl)butoxy)-1,1a,3,7b-tetrahydro-2H-cyclopropa[c]quinolin-2-one] showed a half-life in data set [1] (male, ICR, mouse, po) of 15.2 h. Also, the AUC(0-inf) in data set [1] (setting [6]) came to 17700 ng·h/mL. Further, the Cmax in data set [1] (setting [7]) amounted to 1200 ng/mL. In addition, in data set [2], the EC50 stood at 354 nM and the “5-HT1A Max Act %” value came to 62.6%. Moreover, in data set [3], a half-maximal effect (EC50) was put at 0.93 nM and the “D2S Max Act %” value is reported as 114.3%. Further, in data set [4], the EC50 was determined as 0.4 nM and the “D2L Max Act %” value was determined as 43.4%. In addition, in data set [5], the IC50 turned out to be 2340 nM and the “5-HT2A Max Inh %” value came to 91.6%.
